Test results from patent publication US7705004B2, “Protein kinase inhibitors” (Portola Pharmaceuticals, Inc., priority 2007, dated 2010).

Each compound was assayed on human platelet-rich plasma (PRP) (assay: Convulxin-induced aggregation assay (cuvette light transmittance)). Conditions: 125-250 ng/mL Convulxin, read-out: IC50, inhibition of convulxin-induced aggregation of platelet rich plasma.
Type: cell-based
Method: For preparation of human platelet-rich plasma (PRP) for aggregation assays, human venous blood was collected from healthy, drug-free volunteers into 0.38% sodium citrate (0.013 M, pH 7.0 final). PRP was prepared by centrifugation of whole blood at 160×g for 20 minutes at room temperature. The PRP layer was removed, transferred to a new tube, and the platelet count was adjusted, if necessary, to achieve a platelet concentration of ˜3×10^8 platelets/mL using platelet-poor plasma (PPP). PPP was prepared by centrifugation of the remaining blood sample (after removal of PRP) for 20 minutes at 800×g. This preparation of PRP may be subsequently used for aggregation assays in either a 96-well plate or standard cuvette aggregometry.
Inhibition of Convulxin-induced aggregation was determined by cuvette light transmittance aggregation assays. Serial dilutions (1:2) of test compounds were prepared in 30% DMSO in a 96-well V-bottom plate (final DMSO concentration in the cuvette was 0.3%). The test compound (5 μl of serial dilutions in DMSO) was preincubated with PRP for 20 minutes prior to initiation of the aggregation reactions, which were performed in a ChronoLog aggregometer by addition of agonist (125-250 ng/mL Convulxin) to 495 μL of PRP at 37° C. The aggregation reaction was recorded for 4 minutes, and the maximum extent of aggregation was determined by the difference in extent of aggregation at baseline, compared to the maximum aggregation that occurred during the 4 minute period of the assay. Inhibition of aggregation was calculated as the maximum aggregation observed in the presence of inhibitor, compared to that in the absence of inhibitor. IC50s were derived by non-linear regression analysis.
`C[S+]([O-])c1ccc(Nc2nc(Nc3ccc4cn[nH]c4c3)c3cc[nH]c3n2)cc1` (stereo not drawn) [Compound 10-2, N4-(1H-indazol-6-yl)-N2-(4-(methylsulfinyl)phenyl)-7H-pyrrolo[2,3-d]pyrimidine-2,4-diamine] gave an IC50 of no more than 50 µM. `NS(=O)(=O)c1ccc(Nc2nc(Nc3ccc4cn[nH]c4c3)c3cc[nH]c3n2)cc1` [Compound 11-1, 4-(4-(1H-indazol-6-ylamino)-7H-pyrrolo[2,3-d]pyrimidin-2-ylamino)benzenesulfonamide] gave an IC50 of no more than 50 µM. In the case of `c1cc2c(Nc3ccc4cn[nH]c4c3)nc(Nc3ccc(N4CCNCC4)cc3)nc2[nH]1` [Compound 1-2, N4-(1H-indazol-6-yl)-N2-(4-(piperazin-1-yl)phenyl)-7H-pyrrolo[2,3-d]pyrimidine-2,4-diamine], the IC50 is reported as no more than 50 µM. In the case of `CC(=O)N1CCN(c2ccc(Nc3nc(Nc4ccc5cn[nH]c5c4)c4c(C)c[nH]c4n3)cc2)CC1` [Compound 15-1, 1-(4-(4-(4-(1H-indazol-6-ylamino)-5-methyl-7H-pyrrolo[2,3-d]pyrimidin-2-ylamino)phenyl)piperazin-1-yl)ethanone], the IC50 is reported as no more than 50 µM. With `c1cc2c(Nc3ccc4scnc4c3)nc(Nc3ccc4cn[nH]c4c3)nc2[nH]1` [Compound 19-1, N4-(benzo[d]thiazol-5-yl)-N2-(1H-indazol-6-yl)-7H-pyrrolo[2,3-d]pyrimidine-2,4-diamine] the IC50 was no more than 50 µM. For `Cn1ncc2cc(Nc3nc(Nc4ccc(C(N)=O)cc4)nc4[nH]ccc34)ccc21` [Compound 25-1, 4-(4-(1-methyl-1H-indazol-5-ylamino)-7H-pyrrolo[2,3-d]pyrimidin-2-ylamino)benzamide], the IC50 was no more than 50 µM. `CS(=O)(=O)c1ccc(Nc2nc(Nc3ccc4cn[nH]c4c3)c3cc[nH]c3n2)cc1` [Compound 9-1, N4-(1H-indazol-6-yl)-N2-(4-(methylsulfonyl)phenyl)-7H-pyrrolo[2,3-d]pyrimidine-2,4-diamine] gave an IC50 of no more than 50 µM. Compound `Cc1n[nH]c2cc(Nc3nc(Nc4ccc(N5CCNCC5)cc4)nc4[nH]ccc34)ccc12` [Compound 2-2, N4-(3-methyl-1H-indazol-6-yl)-N2-(4-(piperazin-1-yl)phenyl)-7H-pyrrolo[2,3-d]pyrimidine-2,4-diamine] has an IC50 of no more than 50 µM. With `CS(=O)(=O)N1CCN(c2ccc(Nc3nc(Nc4ccc5cn[nH]c5c4)c4cc[nH]c4n3)cc2)CC1` [Compound 8-1, N4-(1H-indazol-6-yl)-N2-(4-(4-(methylsulfonyl)piperazin-1-yl)phenyl)-7H-pyrrolo[2,3-d]pyrimidine-2,4-diamine] the IC50 was no more than 50 µM. `CSc1ccc(Nc2nc(Nc3ccc4cn[nH]c4c3)c3cc[nH]c3n2)cc1` [Compound 10-1, N4-(1H-indazol-6-yl)-N2-(4-(methylthio)phenyl)-7H-pyrrolo[2,3-d]pyrimidine-2,4-diamine] gave an IC50 of no more than 50 µM. Compound `CN1CCN(c2ccc(Nc3nc(Nc4ccc5cn[nH]c5c4)c4cc[nH]c4n3)cc2)CC1` [Compound 13-1, N4-(1H-indazol-6-yl)-N2-(4-(4-methylpiperazin-1-yl)phenyl)-7H-pyrrolo[2,3-d]pyrimidine-2,4-diamine] has an IC50 of no more than 50 µM. With `CS(=O)(=O)N1CCN(c2ccc(Nc3nc(Nc4ccc5cnn(S(C)(=O)=O)c5c4)c4cc[nH]c4n3)cc2)CC1` [Compound 8-2, N4-(1-(methylsulfonyl)-1H-indazol-6-yl)-N2-(4-(4-(methylsulfonyl)piperazin-1-yl)phenyl)-7H-pyrrolo[2,3-d]pyrimidine-2,4-diamine] the IC50 was no more than 50 µM. Compound `CC(=O)N1CCN(c2ccc(Nc3nc(Nc4ccc5cnn(C)c5c4)c4cc[nH]c4n3)cc2)CC1` [Compound 22-2, 1-(4-(4-(4-(1-methyl-1H-indazol-6-ylamino)-7H-pyrrolo[2,3-d]pyrimidin-2-ylamino)phenyl)piperazin-1-yl)ethanone] has an IC50 of no more than 50 µM. With `CC(=O)N1CCN(c2ccc(Nc3nc(Nc4ccc5c(C)n[nH]c5c4)c4cc[nH]c4n3)cc2)CC1` [Compound 2-1, 1-(4-(4-(4-(3-methyl-1H-indazol-6-ylamino)-7H-pyrrolo[2,3-d]pyrimidin-2-ylamino)phenyl)piperazin-1-yl)ethanone] the IC50 was no more than 50 µM. `CC(=O)N(C)c1ccc(Nc2nc(Nc3ccc4cn[nH]c4c3)c3cc[nH]c3n2)cc1` [Compound 6-1, N-(4-(4-(1H-indazol-6-ylamino)-7H-pyrrolo[2,3-d]pyrimidin-2-ylamino)phenyl)-N-methylacetamide] gave an IC50 of no more than 50 µM. With `Cn1ncc2ccc(Nc3nc(Nc4ccc(N5CCNCC5)cc4)nc4[nH]ccc34)cc21` [Compound 22-1, N4-(1-methyl-1H-indazol-6-yl)-N2-(4-(piperazin-1-yl)phenyl)-7H-pyrrolo[2,3-d]pyrimidine-2,4-diamine] the IC50 was no more than 50 µM. In the case of `NC(=O)c1ccc(Nc2nc(Nc3ccc4cn[nH]c4c3)c3cc[nH]c3n2)cc1` [Compound 12-1, 4-(4-(1H-indazol-6-ylamino)-7H-pyrrolo[2,3-d]pyrimidin-2-ylamino)benzamide], the IC50 is reported as no more than 50 µM. With `CC(=O)N1CCN(c2ccc(Nc3nc(Nc4ccc5[nH]ncc5c4)c4cc[nH]c4n3)cc2)CC1` [Compound 14-1, 1-(4-(4-(4-(1H-indazol-5-ylamino)-7H-pyrrolo[2,3-d]pyrimidin-2-ylamino)phenyl)piperazin-1-yl)ethanone] the IC50 was no more than 50 µM. Compound `CN(C)C(=O)C1CCN(c2ccc(Nc3nc(Nc4ccc5nc[nH]c5c4)c4cc[nH]c4n3)cc2)CC1` [Compound 18-1, 1-(4-(4-(1H-benzo[d]imidazol-6-ylamino)-7H-pyrrolo[2,3-d]pyrimidin-2-ylamino)phenyl)-N,N-dimethylpiperidine-4-carboxamide] has an IC50 of no more than 50 µM. For `c1cc2c(Nc3ccc4ncsc4c3)nc(Nc3ccc4cn[nH]c4c3)nc2[nH]1` [Compound 20-1, N4-(benzo[d]thiazol-6-yl)-N2-(1H-indazol-6-yl)-7H-pyrrolo[2,3-d]pyrimidine-2,4-diamine], the IC50 was no more than 50 µM. In the case of `OC1CCN(c2ccc(Nc3nc(Nc4ccc5cn[nH]c5c4)c4cc[nH]c4n3)cc2)CC1` [Compound 7-1, 1-(4-(4-(1H-indazol-6-ylamino)-7H-pyrrolo[2,3-d]pyrimidin-2-ylamino)phenyl)piperidin-4-ol], the IC50 is reported as no more than 50 µM. `CC(=O)N(C)c1ccc(Nc2nc(Nc3ccc4nc[nH]c4c3)c3cc[nH]c3n2)cc1` [Compound 17-1, N-(4-(4-(1H-benzo[D]imidazol-6-ylamino)-7H-pyrrolo[2,3-d]pyrimidin-2-ylamino)phenyl)-N-methylacetamide] gave an IC50 of no more than 50 µM.

Each compound was assayed on human washed platelets (assay: Inhibition of Convulxin-mediated platelet calcium mobilization in vitro). Conditions: 125 ng/mL Convulxin.
Type: cell-based
Method: Inhibition of Convulxin-induced calcium mobilization was determined in human washed platelets using the FLIPR Calcium 3 Assay Kit (Molecular Devices, Sunnyvale, Calif.). For preparation of washed platelets, human venous blood was collected from healthy, drug-free volunteers into ACD (85 mM sodium citrate, 111 mM glucose, 71.4 mM citric acid) containing PGI2 (1.25 mL ACD containing 0.2 μM PGI2 final; PGI2 from Sigma, St. Louis, Mo.). Platelet-rich plasma (PRP) was prepared by centrifugation at 160×g for 20 minutes at room temperature. Washed platelets were prepared by centrifuging PRP for 10 minutes at 730×g and resuspending the platelet pellet in CGS (13 mM sodium citrate, 30 mM glucose, 120 mM NaCl; 2 mL CGS/10 mL original blood volume). The wash in CGS was repeated a second time, the platelets were collected by centrifugation at 730 g for 10 minutes and resuspended at a concentration of 3×10^8 platelets/mL in Hepes-Tyrode's buffer (10 mM Hepes, 138 mM NaCl, 5.5 mM glucose, 2.9 mM KCl, 12 mM NaHCO3, pH 7.4). This platelet suspension was allowed to rest for 45 minutes at room temperature before use in calcium mobilization assays.
For 96-well plate calcium-mobilization experiments, equal volumes of 3×10^8 washed platelets/mL were incubated with equal volumes of Calcium-3 Assay Reagent A resuspended in 1× Hank's Balanced Salt Solution, pH 7.4, 20 mM Hepes buffer. The total reaction volume of 0.2 mL/well included 1.5×10^8/mL washed platelet/Calcium-3 Assay reagent A mix, 10 μM Eptifibatide (Millennium Pharmaceuticals Inc, Cambridge, Mass.) and serial dilutions (1:3) of test compounds in 0.75% DMSO. DMSO alone was added to 1 well of each 8 set to allow for a maximal calcium-mobilization reading. After a 20 minute preincubation at room temperature, the 96-well microplate reader was loaded into the FlexStation (Molecular Devices, Sunnyvale, Calif.). The FlexStation experimental conditions for measuring calcium mobilization were set up using SOFTMax Pro. The settings used were as follows: Fluorescence parameters-assay mode: flex, excitation 485 nm, 525 nM with a cut-off of 515 nM; Parameters—PMT sensitivity-6, pipette height 230 μl, read time 2 minutes and 40 seconds, read intervals 2 seconds, temperature-23-25° C. After 18 seconds of baseline reading, calcium mobilization was initiated by the addition of Convulxin to a final concentration of 125 ng/mL. Inhibition of calcium mobilization was calculated as the maximum response observed in the presence of inhibitor, compared to that in the absence of inhibitor. IC50s were then derived by non-linear regression analysis.
For `c1cc2c(Nc3ccc4cn[nH]c4c3)nc(Nc3ccc(N4CCNCC4)cc3)nc2[nH]1` [Compound 1-2, N4-(1H-indazol-6-yl)-N2-(4-(piperazin-1-yl)phenyl)-7H-pyrrolo[2,3-d]pyrimidine-2,4-diamine], the IC50 was less than 1000 nM. `CS(=O)(=O)c1ccc(Nc2nc(Nc3ccc4cn[nH]c4c3)c3cc[nH]c3n2)cc1` [Compound 9-1, N4-(1H-indazol-6-yl)-N2-(4-(methylsulfonyl)phenyl)-7H-pyrrolo[2,3-d]pyrimidine-2,4-diamine] was tested, and the IC50 was less than 1000 nM. Compound `Cc1n[nH]c2cc(Nc3nc(Nc4ccc(N5CCNCC5)cc4)nc4[nH]ccc34)ccc12` [Compound 2-2, N4-(3-methyl-1H-indazol-6-yl)-N2-(4-(piperazin-1-yl)phenyl)-7H-pyrrolo[2,3-d]pyrimidine-2,4-diamine] has an IC50 of less than 1000 nM. `CC1(C)Oc2ccc(Nc3nc(Nc4ccc5c(c4)NC(=O)C(C)(C)O5)c4cc[nH]c4n3)cc2NC1=O` [Compound 3-1] gave an IC50 of less than 1000 nM. `CS(=O)(=O)N1CCN(c2ccc(Nc3nc(Nc4ccc5cn[nH]c5c4)c4cc[nH]c4n3)cc2)CC1` [Compound 8-1, N4-(1H-indazol-6-yl)-N2-(4-(4-(methylsulfonyl)piperazin-1-yl)phenyl)-7H-pyrrolo[2,3-d]pyrimidine-2,4-diamine] showed an IC50 of less than 1000 nM. `CS(=O)(=O)N1CCN(c2ccc(Nc3nc(Nc4ccc5cnn(S(C)(=O)=O)c5c4)c4cc[nH]c4n3)cc2)CC1` [Compound 8-2, N4-(1-(methylsulfonyl)-1H-indazol-6-yl)-N2-(4-(4-(methylsulfonyl)piperazin-1-yl)phenyl)-7H-pyrrolo[2,3-d]pyrimidine-2,4-diamine] showed an IC50 of less than 1000 nM. Work on `CC1(C)Oc2ccc(Nc3nc(Nc4ccc5cn[nH]c5c4)nc4[nH]ccc34)cc2NC1=O` [Compound 16-1, 6-(2-(1H-indazol-6-ylamino)-7H-pyrrolo[2,3-d]pyrimidin-4-ylamino)-2,2-dimethyl-2H-benzo[b][1,4]oxazin-3(4H)-one] yielded an IC50 of less than 1000 nM. `c1cc2c(Nc3ccc4cn[nH]c4c3)nc(Nc3ccc4cn[nH]c4c3)nc2[nH]1` [Compound 4-1, N2,N4-di(1H-indazol-6-yl)-7H-pyrrolo[2,3-d]pyrimidine-2,4-diamine] was tested, and the IC50 was less than 1000 nM.
